19 compounds from US9856247B2, “4-methyl-dihydropyrimidines for the treatment and prophylaxis of Hepatitis B virus infection” (Hoffmann-La Roche Inc., priority 2012, dated 2018) can be followed below.

The subject of one series is HBV DNA. Briefly: Anti-HBV activity in HepDE19 cells (HBV DNA dot-blot). It is filed as cell-based, Hepatitis B virus (HBV). The conditions noted are these: Hepatitis B virus, 120 h; HepDE19 cells, five days after compound treatment, concentration that inhibited HBV DNA by 50%; read-out: HepDe19 EC50. The source says:
Cells and culture conditions: HepDE19 (Haitao Guo et al, Journal of Virology, 81, November 2007, 12472-12484; Richeng Mao et al, Journal of Virology, 85, January 2011, 1048-1057) cells were derived from HepG2 (ATCC, American Type Culture Collection) cells through transfection with pTet-off plasmid (Clontech) that expresses the Tet-responsive transcriptional activator and pTREHBVDE plasmid in which HBV pgRNA expression is controlled by a CMV early promoter with a tetracycline-responsive element. The transfected cells were selected with G418 (also known as Genticin, purchased from Invitrogen). […] These cells were maintained in Dulbecco's modified Eagle's medium (DMEM)-F12 medium (Invitrogen) supplemented with 10% fetal bovine serum, 100 U/ml penicillin, and 100 μg/ml streptomycin, 0.5 mg/ml of G418 and 1 μg/ml tetracycline.
Anti-HBV activity and cytotoxicity: HepDE19 cells were seeded into 96-well plates (3×10^4 cells/well) with tetracycline-free medium and incubated overnight at 37° C. The test or control compounds were serially half-log diluted with medium and added into the plates (the final concentration of DMSO kept at 0.5% in each well). Five days after compound treatment, cells were washed with PBS and lysed with 50 mM Tris-1 mM EDTA-0.2% CA-630 (pH 8.0) at 37° C. for 20 min. After centrifugation to remove nuclei and other debris, the supernatant was transferred into a new plate and incubated with 2M NaOH/20×SSC (3M NaCl, 0.3M Sodium citrate, pH7.0) at rt for 30 min. Then the samples were transferred to nylon membrane and neutralized with 1M Tris (pH7.4)/2M NaCl. The presence of HBV DNA was detected by dot-blot with DIG-labeled HBV specific DNA probe and quantified by dot density. The compound concentrations that inhibited HBV DNA by 50% (EC50) were determined (See Table 1).

The next series can be described thus: in vitro. The conditions noted are these: human. The protocol:
The transfected cells were selected with G418 (also known as Genticin, purchased from Invitrogen). […] These cells were maintained in Dulbecco's modified Eagle's medium (DMEM)-F12 medium (Invitrogen) supplemented with 10% fetal bovine serum, 100 U/ml penicillin, and 100 μg/ml streptomycin, 0.5 mg/ml of G418 and 1 μg/ml tetracycline.
To determine if the anti-HBV effect of compound is due to cytotoxicity, HepDE 19 cells (5×10^3 cells/well) were seeded into 96-well plates and compounds were treated as described above. […] Four hours after incubation at 37° C., the absorbance at wavelengths of 450 nm and 630 nm (OD450 and OD630) was recorded by a plate reader.

For the compound `CC1(c2ccc(F)c(F)c2)N=C(c2nccs2)NC(CN2CCOC[C@H]2C(=O)O)=C1C#N` (stereo partly drawn) [Example 22, (S)-4-[5-Cyano-6-(3,4-difluoro-phenyl)-6-methyl-2-thiazol-2-yl-3,6-dihydro-pyrimidin-4-ylmethyl]-morpholine-3-carboxylic acid], the EC50 in the series on HBV DNA was 20400 nM. The same compound registered a CC50 at 5 days in “in vitro” above 100 µM.

Turning to `C[C@@]1(c2ccc(F)c(F)c2)N=C(c2nccs2)NC(CN2CC(F)(F)C[C@H]2C(=O)O)=C1C#N` [Example 23, (S)-1-[(S)-5-Cyano-6-(3,4-difluoro-phenyl)-6-methyl-2-thiazol-2-yl-3,6-dihydro-pyrimidin-4-ylmethyl]-4,4-difluoro-pyrrolidine-2-carboxylic acid], in the series on HBV DNA, the concentration giving a half-maximal response (EC50) is 7000 nM. Further, the CC50 at 5 days in “in vitro” was above 100 µM.

In the case of `CCOC(=O)C1=C(CN2CC(F)(F)C[C@H]2C(=O)O)NC(c2nccs2)=N[C@@]1(C)c1ccc(F)c(F)c1` [Example 24, (S)-6-((S)-2-carboxy-4,4-difluoro-pyrrolidin-1-ylmethyl)-4-(3,4-difluoro-phenyl)-4-methyl-2-thiazol-2-yl-1,4-dihydro-pyrimidine-5-carboxylic acid ethyl ester], the EC50 in the series with HBV DNA amounted to 800 nM. The compound also yielded a CC50 at 5 days in “in vitro” of at least 100 µM.

For the compound `COC(=O)C1=C(CN2CC(F)(F)CCC2C(=O)O)NC(c2nccs2)=N[C@@]1(C)c1ccc(F)cc1` (stereo partly drawn) [Example 25, (S)-6-(2-carboxy-5,5-difluoro-piperidin-1-ylmethyl)-4-(4-fluoro-phenyl)-4-methyl-2-thiazol-2-yl-1,4-dihydro-pyrimidine-5-carboxylic acid methyl ester], the EC50 in the series with HBV DNA was determined as 1090 nM. In the series “in vitro”, this compound registered a CC50 at 5 days of at least 100 µM.

Take `COC(=O)C1=C(CN2CCC(F)(F)CC2C(=O)O)NC(c2nccs2)=N[C@@]1(C)c1ccc(F)cc1` (stereo partly drawn) [Example 26, (S)-6-(2-carboxy-4,4-difluoro-piperidin-1-ylmethyl) 4-(4-fluoro-phenyl)-4-methyl-2-thiazol-2-yl-1,4-dihydro-pyrimidine-5-carboxylic acid methyl ester]: the EC50 in the series on HBV DNA turned out to be 1970 nM. Moreover, the CC50 at 5 days in “in vitro” is at least 100 µM.

With `COC(=O)C1=C(CN2CC(F)(F)C[C@H]2C(=O)O)NC(c2nccn2C)=N[C@@]1(C)c1ccc(F)cc1` [Example 27, (S)-6-((S)-2-carboxy-4,4-difluoro-pyrrolidin-1-ylmethyl)-4-(4-fluoro-phenyl)-4-methyl-2-(1-methyl-1H-imidazol-2-yl)-1,4-dihydro-pyrimidine-5-carboxylic acid methyl ester], the EC50 in the series with HBV DNA worked out at 2720 nM. Further, the CC50 at 5 days in “in vitro” was found to be 55.8 µM.

Take `CCOC(=O)C1=C(CN2CC(F)(F)C[C@H]2C(=O)O)NC(c2nccs2)=N[C@]1(C)c1ccc(F)c(F)c1` [Example 28, (R)-6-((S)-2-carboxy-4,4-difluoro-pyrrolidin-1-ylmethyl)-4-(3,4-difluoro-phenyl)-4-methyl-2-thiazol-2-yl-1,4-dihydro-pyrimidine-5-carboxylic acid ethyl ester]: the EC50 in the series with HBV DNA came out at 7480 nM. This compound returned a CC50 at 5 days in “in vitro” of at least 100 µM.

Consider `CCOC(=O)C1=C(CN2CCOC[C@H]2C(=O)O)NC(c2nccs2)=NC1(C)c1ccc(F)c(F)c1` (stereo partly drawn) [Example 29, (S)-4-[6-(3,4-difluoro-phenyl)-5-ethoxycarbonyl-6-methyl-2-thiazol-2-yl-3,6-dihydro-pyrimidin-4-ylmethyl]-morpholine-3-carboxylic acid], for which the EC50 in the series on HBV DNA came to 3980 nM. The CC50 at 5 days in “in vitro” is at least 100 µM.

As to `COC(=O)C1=C(CN2CCOC[C@H]2C(=O)O)NC(c2nccn2C)=N[C@@]1(C)c1ccc(F)cc1` [Example 30, (S)-4-[(S)-6-(4-fluoro-phenyl)-5-methoxycarbonyl-6-methyl-2-(1-methyl-1H-imidazol-2-yl)-3,6-dihydro-pyrimidin-4-ylmethyl]-morpholine-3-carboxylic acid], in the series with HBV DNA, the EC50 was 6770 nM. The compound further had a CC50 at 5 days in the series “in vitro” of at least 100 µM.

`COC(=O)C1=C(CN2CC(F)(F)C[C@H]2C(=O)O)NC(c2nc(C)cs2)=N[C@]1(C)c1ccc(F)cc1` [Example 31, (R)-6-((S)-2-carboxy-4,4-difluoro-pyrrolidin-1-ylmethyl)-4-(4-fluoro-phenyl)-4-methyl-2-(4-methyl-thiazol-2-yl)-1,4-dihydro-pyrimidine-5-carboxylic acid methyl ester]: in the series on HBV DNA, the EC50 was 1670 nM. Also, in “in vitro”, the CC50 at 5 days is at least 100 µM.

As to `COC(=O)C1=C(CN2CC(F)(F)C[C@H]2C(=O)O)NC(c2nc(C)cs2)=N[C@@]1(C)c1ccc(F)cc1` [Example 32, (S)-6-((S)-2-carboxy-4,4-difluoro-pyrrolidin-1-ylmethyl)-4-(4-fluoro-phenyl)-4-methyl-2-(4-methyl-thiazol-2-yl)-1,4-dihydro-pyrimidine-5-carboxylic acid methyl ester], the EC50 in the series on HBV DNA is 130 nM. Moreover, in the series “in vitro”, the CC50 at 5 days is 75 µM.

Turning to `COC(=O)C1=C(CN2CC(F)(F)C[C@H]2C(=O)O)NC(c2ncc(Cl)s2)=N[C@@]1(C)c1ccc(F)cc1` [Example 33, (S)-6-((S)-2-carboxy-4,4-difluoro-pyrrolidin-1-ylmethyl)-2-(5-chloro-thiazol-2-yl)-4-(4-fluoro-phenyl)-4-methyl-1,4-dihydro-pyrimidine-5-carboxylic acid methyl ester], in the series with HBV DNA, the concentration for a half-maximal effect (EC50) came out at 2070 nM. The compound also displayed a CC50 at 5 days in the series “in vitro” of 80 µM.

`COC(=O)C1=C(CN2C[C@H](F)C[C@H]2C(=O)O)NC(c2nccs2)=N[C@@]1(C)c1ccc(F)cc1` [Example 34, (S)-6-((2S,4R)-2-Carboxy-4-fluoro-pyrrolidin-1-ylmethyl)-4-(4-fluoro-phenyl)-4-methyl-2-thiazol-2-yl-1,4-dihydro-pyrimidine-5-carboxylic acid methyl ester]: the EC50 in the series on HBV DNA is 2840 nM. This compound gave a CC50 at 5 days in “in vitro” of at least 100 µM.

`COC(=O)C1=C(CN2CC(F)(F)C[C@H]2C(=O)O)NC(c2ccon2)=NC1(C)c1ccc(F)cc1` (stereo partly drawn) [Example 35, 6-((S)-2-carboxy-4,4-difluoro-pyrrolidin-1-ylmethyl)-4-(4-fluoro-phenyl)-2-isoxazol-3-yl-4-methyl-1,4-dihydro-pyrimidine-5-carboxylic acid methyl ester]: the EC50 in the series on HBV DNA came to 15000 nM. Moreover, in the series “in vitro”, the CC50 at 5 days is at least 100 µM.

`COC(=O)C1=C(CN2CC(F)(F)C[C@@]2(C)C(=O)O)NC(c2nccs2)=N[C@]1(C)c1ccc(F)cc1` [Example 36, (R)-6-((S)-2-carboxy-4,4-difluoro-2-methyl-pyrrolidin-1-ylmethyl)-4-(4-fluoro-phenyl)-4-methyl-2-thiazol-2-yl-1,4-dihydro-pyrimidine-5-carboxylic acid methyl ester]: in the series with HBV DNA, the EC50 amounted to 7490 nM. In the series “in vitro”, this compound displayed a CC50 at 5 days of at least 100 µM.

As to `COC(=O)C1=C(CN2CC(F)(F)C[C@H]2C(=O)O)NC(c2ncc(C)s2)=N[C@@]1(C)c1ccc(F)cc1` [Example 37, (S)-6-((S)-2-carboxy-4,4-difluoro-pyrrolidin-1-ylmethyl)-4-(4-fluoro-phenyl)-4-methyl-2-(5-methyl-thiazol-2-yl)-1,4-dihydro-pyrimidine-5-carboxylic acid methyl ester], in the series with HBV DNA, the EC50 is 470 nM. This compound also had a CC50 at 5 days in “in vitro” of 85 µM.

As to `COC(=O)C1=C(CN2C[C@@H](F)C[C@H]2C(=O)O)NC(c2nccs2)=N[C@@]1(C)c1ccc(F)cc1` [Example 39, (S)-6-((2S,4S)-2-carboxy-4-fluoro-pyrrolidin-1-ylmethyl)-4-(4-fluoro-phenyl)-4-methyl-2-thiazol-2-yl-1,4-dihydro-pyrimidine-5-carboxylic acid methyl ester], the half-maximal effective concentration (EC50) in the series on HBV DNA was determined as 10500 nM. Besides, the CC50 at 5 days in the series “in vitro” is at least 100 µM.

For `COC(=O)C1=C(CN2CC(F)(F)C[C@H]2C(=O)O)NC(c2cc(C)on2)=NC1(C)c1ccc(F)cc1` (stereo partly drawn) [Example 40, 6-((S)-2-carboxy-4,4-difluoro-pyrrolidin-1-ylmethyl)-4-(4-fluoro-phenyl)-4-methyl-2-(5-methyl-isoxazol-3-yl)-1,4-dihydro-pyrimidine-5-carboxylic acid methyl ester], the EC50 in the series on HBV DNA was determined as 5390 nM. In the series “in vitro”, the CC50 at 5 days is at least 100 µM.

For `COC(=O)C1=C(CN2CC(F)(F)C[C@H]2C(=O)O)NC(c2sccc2F)=N[C@@]1(C)c1ccc(F)cc1` [Example 41, (S)-6-((S)-2-carboxy-4,4-difluoro-pyrrolidin-1-ylmethyl)-4-(4-fluoro-phenyl)-2-(3-fluoro-thiophen-2-yl)-4-methyl-1,4-dihydro-pyrimidine-5-carboxylic acid methyl ester], the EC50 in the series on HBV DNA came to 285 nM. In addition, the CC50 at 5 days in the series “in vitro” is at least 100 µM.

In general, EC50 refers to the concentration needed to bring the measured effect to its halfway point.
